The text below walks through data of patent US12280046B2, “Melanocortin subtype-2 receptor (MC2R) antagonist for the treatment of disease” (Crinetics Pharmaceuticals, Inc., priority 2021, dated 2025).

Data set [1] is described as follows: Phase 1 MAD study, pharmacokinetics, 40 mg daily over 10 days. The format is in vivo, human. The source says:
(§1) This Phase 1, first-in-human, double-blind, randomized, placebo-controlled study will evaluate the safety of Compound 1 in healthy volunteers as well as the relationship between exposure and pharmacodynamic (PD) parameters, including ACTH-stimulated and endogenous cortisol secretion measured in blood, saliva, and urine. Results will be used to inform endpoints and other parameters in future later studies in patients with Cushing's disease (CD) or other diseases of excess adrenocorticotropic hormone (ACTH), including Congenital Adrenal Hyperplasia (CAH) and Ectopic ACTH Syndrome (EAS).
MAD/Part 2: multiple ascending dose, randomized, placebo-controlled, double-blind; 2 planned and up to 4 total cohorts (n=36). In each cohort, 6 subjects will receive Compound 1, 3 subjects will receive the placebo. The doses will not exceed the doses in the SAD.
Pharmacokinetic results for Day 1 and Day 10 from the MAD study using a 40 mg daily dose of Compound 1 over 10 days are shown in FIG. 12. Data shown are mean±SEM. […] The mean half-life was ˜30 hours.

Data set [2] deals with basal and ACTH-stimulated cortisol. The data set can be described thus: Phase 1 SAD study, basal cortisol and ACTH-stimulation test. It is filed as in vivo, human. To be noted: for % suppression in cortisol AUC: high dose ACTH (250 mcg) challenge.
Description: as §1
SAD/Part 1: ascending single dose, randomized, placebo-controlled, double-blind; 5 planned and up to 8 total cohorts, n=64. In each cohort, 6 subjects will receive Compound 1, 2 subjects will receive the placebo. Doses will escalate from 10 mg in cohort 1 to no more than 250 mg.
ACTH-stimulation tests are conducted while fasting. For PD analyses, blood samples are collected for measurement of serum cortisol, A4, 17-OHP, aldosterone, and DHEA. A summary of the procedure is as follows: In the “high dose” test, each subject is administered an IV 250 μg dose (for subjects >37 lbs) of cosyntropin (ACTH(1-24)) at the start of each test; in the “low dose” test, 1 mcg is administered instead. At 2 hours after study drug dosing/Time 0 (±5 minutes), collect blood sample. Within 5 minutes, administer cosyntropin IV infusion over 2 minutes. Collect blood sample at Time 30 minutes (5 minutes). Collect blood sample at Time 60 minutes (5 minutes).
Starting on Day −1 until EOS (or ET), fasting pre-dose blood samples are collected <15 minutes prior to dosing (˜0800 hr) for measurement of serum cortisol, A4, 17-OHP, aldosterone, ACTH(1 39), renin, and DHEAS. On Days in which ACTH-stimulation tests are conducted, these tests are done approximately 2 hours post-study drug dosing. Prior to cosyntropin administration, at 2 hours (15 minutes) post-dose, blood samples are collected for measurement of cortisol, A4, 17-OHP, aldosterone, and DHEA. Cosyntropin is then administered to define time 0 of the ACTH-stimulation test. At 2.5 hours (15 minutes) post-dose/30 minutes post-cosyntropin, blood samples are collected for measurement of cortisol. At 3 hours (15 minutes) post-dose/60 minutes post-cosyntropin, blood samples are collected for measurement of cortisol, A4, 17-OHP, aldosterone, and DHEA.
Compound 1 was also evaluated in the context of an ACTH-Stimulation Test, with oral Compound 1 or placebo being administered prior to the intravenous (IV) administration of cosyntropin (ACTH(1-24)). In the absence of pharmacologic intervention, IV administration of ACTH leads to the secretion of cortisol; whereas the pharmacologic intervention can suppress secretion of […] cortisol levels.

The target in a further data set is T1, MC4R (Homo sapiens, UniProt P32245).
T1 construct: purchased
The data set can be described thus: Commercially available MC4R membrane binding assay. As to conditions: greater than highest concentration tested. The protocol:
The selectivity over other human MCR subtypes was evaluated using commercially available MC1R, MC3R, MC4R, and MCSR membrane binding assays. The half maximal inhibitory concentration in the binding assays (IC50) were determined to be greater than the highest concentration tested, or >10,000 nM, >1000 nM, >10,000 nM and >1000 nM for MC1R, MC3R, MC4R and MCSR, respectively. Compound 1 is >2900-fold selective for MC2R versus the other human MCRs.

SMILES strings stand for the structures. Some results are limits rather than exact numbers.

T1 sequence (P32245 whole entry): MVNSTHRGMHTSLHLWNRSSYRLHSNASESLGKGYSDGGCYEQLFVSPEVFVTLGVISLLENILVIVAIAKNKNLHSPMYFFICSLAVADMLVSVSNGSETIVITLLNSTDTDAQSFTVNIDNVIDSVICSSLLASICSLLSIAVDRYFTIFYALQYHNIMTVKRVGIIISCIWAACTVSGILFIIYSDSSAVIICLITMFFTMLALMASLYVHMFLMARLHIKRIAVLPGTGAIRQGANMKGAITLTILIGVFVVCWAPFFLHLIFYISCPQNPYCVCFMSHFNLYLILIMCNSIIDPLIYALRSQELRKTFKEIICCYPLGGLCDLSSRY

As for `CCOc1ccccc1-c1ccc(N2CCN(C(=O)C3(C(F)(F)F)CCC3)C[C@H]2CC)c(C(=O)N[C@@H]2CN3CCC2CC3)n1` [Compound 1, 6-(2-ethoxyphenyl)-3-((R)-2-ethyl-4-(1-(trifluoromethyl)cyclobutane-1-carbonyl)piperazin-1-yl)-N—((S)-quinuclidin-3-yl)picolinamide], the “accumulation with chronic dosing, higher than projected from SAD study results” value in data set [1] (40 mg daily over 10 days) is “approximately 2.4 fold”. Further, the “Day 1 PK profile and exposures” value in data set [1] (40 mg, Day 1) is recorded as “comparable to the 40 mg single dose from the SAD study”. For the same compound, the half-life (commonly how long it takes for the measured level to halve) in data set [1] (human, in vivo, oral, 40 mg daily over 10 days) is approximately 30 h. Moreover, the “% suppression in cortisol AUC” value is on record as “about 9%” in data set [2] (10 mg), “about 22%” in data set [2] (20 mg), “about 36%” in data set [2] (40 mg) and “about 41%” in data set [2] (80 mg). Also, the “acute reduction of basal cortisol” value in data set [2] (80 mg, 2 hours after administration) is 56%. Besides, the “reduction in cortisol levels” value in data set [2] (80 mg, low dose ACTH (1 mcg) stimulation challenge) turned out to be 48%. Also, on MC4R, the half-maximal inhibitory concentration (IC50) – broadly, the concentration that inhibits the measured activity by half – is more than 10 µM.
